Measurements as given in patent US4539401A, “Pyridobenzoxazine derivatives useful as antibacterial agents” (Daiichi Seiyaku Co., Ltd., priority 1982, dated 1985).
≈ marks a conversion by molar mass, not a printed value. Structures can show the parent of a compound that is named as a salt.

Columns and labels:
[1] = tested on: B. subtilis, ATCC-6633; experiment: MIC, standard method of the Japan Society of Chemotherapy (Mueller-Hinton Broth medium); format: cell-based; details: Bacillus subtilis, ATCC6633, 10^6 /ml of bacteria, 37° C., 18 hours
Protocol: (§1) *Determined by the standard method of the Japan Society of Chemoterapy:
(§2) (MuellerHinton Broth medium), 10^6 /ml of bacteria were seeded and
(§3) incubated at 37° C. for 18 hours.

[2] = tested on: E. coli, NIHJ; experiment: as above; format: cell-based; details: Escherichia coli, 10^6 /ml of bacteria, 37° C., 18 hours
Protocol: as §1, §2, §3

[3] = tested on: Ent. cloacae, 03400; experiment: as above; format: cell-based; details: Enterobacter cloacae, 10^6 /ml of bacteria, 37° C., 18 hours
Protocol: as §1, §2, §3

[4] = tested on: K. pneumoniae, type 1; experiment: as above; format: cell-based; details: Klebsiella pneumoniae, TYPE1, 10^6 /ml of bacteria, 37° C., 18 hours
Protocol: as §1, §2, §3

[5] = tested on: Pr. mirabilis, IFO-3849; experiment: as above; format: cell-based; details: Proteus mirabilis, IFO3849, 10^6 /ml of bacteria, 37° C., 18 hours
Protocol: as §1, §2, §3

[6] = tested on: Pr. vulgaris, 08602; experiment: as above; format: cell-based; details: Proteus vulgaris, 10^6 /ml of bacteria, 37° C., 18 hours
Protocol: as §1, §2, §3

[7] = tested on: Ps. aeruginosa, 32104; experiment: as above; format: cell-based; details: Pseudomonas aeruginosa, 10^6 /ml of bacteria, 37° C., 18 hours
Protocol: as §1, §2, §3

[8] = tested on: Ps. aeruginosa, 32121; experiment: as above; format: cell-based; details: Pseudomonas aeruginosa, 10^6 /ml of bacteria, 37° C., 18 hours
Protocol: as §1, §2, §3

[9] = tested on: Ps. aeruginosa, 32122; experiment: as above; format: cell-based; details: Pseudomonas aeruginosa, 10^6 /ml of bacteria, 37° C., 18 hours
Protocol: as §1, §2, §3

[10] = tested on: Ps. aeruginosa, 32233; experiment: as above; format: cell-based; details: Pseudomonas aeruginosa, 10^6 /ml of bacteria, 37° C., 18 hours
Protocol: as §1, §2, §3

[11] = tested on: Ps. aeruginosa, 32234; experiment: as above; format: cell-based; details: Pseudomonas aeruginosa, 10^6 /ml of bacteria, 37° C., 18 hours
Protocol: as §1, §2, §3

[12] = tested on: S. aureus, 209 P; experiment: as above; format: cell-based; details: Staphylococcus aureus, 10^6 /ml of bacteria, 37° C., 18 hours
Protocol: as §1, §2, §3

[13] = tested on: S. epidermidis, 56500; experiment: as above; format: cell-based; details: Staphylococcus epidermidis, 10^6 /ml of bacteria, 37° C., 18 hours
Protocol: as §1, §2, §3

[14] = tested on: Ser. marcescens, 10104; experiment: as above; format: cell-based; details: Serratia marcescens, 10^6 /ml of bacteria, 37° C., 18 hours
Protocol: as §1, §2, §3

[15] = tested on: Sh. flexneri, 2a, 5503; experiment: as above; format: cell-based; details: Shigella flexneri, 10^6 /ml of bacteria, 37° C., 18 hours
Protocol: as §1, §2, §3

[16] = tested on: Str. faecalis, ATCC-19433; experiment: as above; format: cell-based; details: Enterococcus faecalis, ATCC19433, 10^6 /ml of bacteria, 37° C., 18 hours
Protocol: as §1, §2, §3

[17] = tested on: Str. pyogenes, G-36; experiment: as above; format: cell-based; details: Streptococcus pyogenes, G36, 10^6 /ml of bacteria, 37° C., 18 hours
Protocol: as §1, §2, §3

[18] = tested on: Gram-positive bacteria; experiment: antibacterial activity, statement in words; format: cell-based; details: from Table 1
Protocol: as §1, §2, §3

[19] = acute toxicity (LD 50) in mice (i.v.); details: mouse, in vivo, iv
[20] = tested on: Pseudomonas aeruginosa; experiment: antibacterial activity, statement in words; format: cell-based; details: from Table 1
Protocol: as §1, §2, §3

| SMILES | MIC [1] [µg/mL] | MIC [2] [µg/mL] | MIC [3] [µg/mL] | MIC [4] [µg/mL] | MIC [5] [µg/mL] | MIC [6] [µg/mL] | MIC [7] [µg/mL] | MIC [8] [µg/mL] | MIC [9] [µg/mL] | MIC [10] [µg/mL] | MIC [11] [µg/mL] | MIC [12] [µg/mL] | MIC [13] [µg/mL] | MIC [14] [µg/mL] | MIC [15] [µg/mL] | MIC [16] [µg/mL] | MIC [17] [µg/mL] | antibacterial activity against Gram-positive bacteria [18] | LD50 [19] [mg/kg] | antibacterial activity against Pseudomonas aeruginosa [20] |
| --- | --- | --- | --- | --- | --- | --- | --- | --- | --- | --- | --- | --- | --- | --- | --- | --- | --- | --- | --- | --- |
| C=C1COc2c(N3CCC(O)C3)c(F)cc3c(=O)c(C(=O)O)cn1c23 (centres unmarked) [Ia, 9-fluoro-10-(3-hydroxy-1-pyrrolidnyl)-3-methylene-7-oxo-2,3-dihydro-7H-pyrido(1,2,3-de)-1,4-benzoxazine-6-carboxylic acid] | ≤ 0.0063 | 0.0125 (≈ 0.0361 µM) | 0.05 (≈ 0.144 µM) | 0.19 (≈ 0.549 µM) | 0.05 (≈ 0.144 µM) | 0.025 (≈ 0.0722 µM) | 0.78 (≈ 2.25 µM) | 0.19 (≈ 0.549 µM) | 0.78 (≈ 2.25 µM) | 0.78 (≈ 2.25 µM) | 0.78 (≈ 2.25 µM) | 0.05 (≈ 0.144 µM) | 0.19 (≈ 0.549 µM) | 0.1 (≈ 0.289 µM) | 0.025 (≈ 0.0722 µM) | 0.39 (≈ 1.13 µM) | 0.78 (≈ 2.25 µM) | very strong antibacterial activity |  |  |
| C=C1COc2c(N3CCC(O)C3)c(F)cc3c(=O)c(C(=O)O)cn1c23 (centres unmarked) [Ia, sodium salt] |  |  |  |  |  |  |  |  |  |  |  |  |  |  |  |  |  |  | 333 |  |
| C=C1COc2c(N3CCC(N)C3)c(F)cc3c(=O)c(C(=O)O)cn1c23 (centres unmarked) [Ib, 10-(3-amino-1-pyrrolidinyl)-9-fluoro-3-methylene-7-oxo-2,3-dihydro-7H-pyrido(1,2,3-de)-1,4-benzoxazine-6-carboxylic acid] | 0.05 (≈ 0.145 µM) | 0.025 (≈ 0.0724 µM) | 0.025 (≈ 0.0724 µM) | 0.05 (≈ 0.145 µM) | 0.025 (≈ 0.0724 µM) | 0.025 (≈ 0.0724 µM) | 0.1 (≈ 0.29 µM) | 0.05 (≈ 0.145 µM) | 0.1 (≈ 0.29 µM) | 0.19 (≈ 0.55 µM) | 0.1 (≈ 0.29 µM) | 0.1 (≈ 0.29 µM) | 0.39 (≈ 1.13 µM) | 0.05 (≈ 0.145 µM) | 0.0125 (≈ 0.0362 µM) | 0.78 (≈ 2.26 µM) | 0.78 (≈ 2.26 µM) |  |  | very strong antibacterial activity |
| C=C1COc2c(N3CCC(N)C3)c(F)cc3c(=O)c(C(=O)O)cn1c23 (centres unmarked) [Ib, methanesulfonic acid addition salt] |  |  |  |  |  |  |  |  |  |  |  |  |  |  |  |  |  |  | > 320 |  |
